From US20230094952A1, “Method for Culturing Hematopoietic Stem Cells” (Sumitomo Pharma Co., Ltd., priority 2019, published 2023)

Tests used:
[1] = test system: human hematopoietic stem cells (CD34-positive cells); experiment: Confirmation test with human cells: 1-week culture of cord blood Lineage-negative CD34-positive cells, flow cytometry; format: cell-based
Text: Collection of Human Cord Blood-Derived Mononuclear Cells Human cord blood-derived mononuclear cells were subjected to removal of erythrocytes and concentration treatment by using EasySep RBC Depletion Reagent (manufactured by […] Technologies Inc.) to obtain a cell population including hematopoietic stem cells.
First, a CD34-positive cell fraction was partially purified from the thus-obtained cell population including hematopoietic stem cells by using an EASYSep Human Cord Blood CD34 Positive Selection Kit II (manufactured by […] Technologies Inc.). The concentrated CD34-positive cells in a cell population enriched with hematopoietic stem cells and progenitor cells were stained with antibodies for the following cell surface markers.
Staining with the antibodies was performed at 4° C., and the cells were incubated for 30 minutes. For staining with the CD34 antibody, the cells were incubated for 90 minutes. Dead cell staining was performed with SYTOX Blue Dead Cell Stain (manufactured by Life Technologies) in accordance with a method recommended by the manufacturer.
Flow cytometry analysis and cell classification (cell sorting) were performed with a FACS Aria III cell sorter (manufactured by BD Biosciences), wherein fractions being Lineage-negative and CD34-positive were regarded as hematopoietic stem cells, and analysis was performed with the software FlowJo (manufactured by Tree Star, Inc.).
The cells after classification were seeded in a 96-well plate. […]
Each of artemether and the compounds of Example 1-23, Example 1-16, and Example 1-7 was prepared with the cell culture medium at nine final concentrations (0.001 μM, 0.003 μM, 0.01 μM, 0.03 μM, 0.1 μM, 0.3 μM, 1 μM, 3 μM, 10 μM), and added to the above human cells seeded after classification to a final volume of 200 μL/well to act thereon. UM171 (35 nM) was added to some of them to examine the presence or absence of synergistic effect. Thereafter, the cells were cultured in a CO2 incubator under conditions of 37° C. and 5% CO2 for 1 week. Viable cell counts and CD34-positive cell counts were analyzed.
After culture, the cells were stained with the antibodies for the surface markers CD34, CD11b, CD14, CD19, CD20, CD235ab, CD3, CD4, CD56, and CD8a, and the visible cell count and the ratio and post-growth cell count of a CD34 fraction (CD34^+, Lin^−) were measured by using a FACS Aria III cell sorter, and analyzed by using FlowJo (BD Biosciences). The CD34 fraction is a fraction including hematopoietic stem cells and multipotent progenitor cells as main components.

[2] = test system: human hematopoietic stem cells (CD34-positive cells); experiment: Functional test with human cells: colony assay (CFU-GEMM) after culture; format: cell-based
Method: Each of artemether and the compounds of Example 1-23, Example 1-16, and Example 1-7 was prepared with the cell culture medium at nine final concentrations (0.001 μM, 0.003 μM, 0.01 μM, 0.03 μM, 0.1 μM, 0.3 μM, 1 μM, 3 μM, 10 μM), and added to the above human cells seeded after classification to a final volume of 200 μL/well to act thereon. UM171 (35 nM) was added to some of them to examine the presence or absence of synergistic effect. Thereafter, the cells were cultured in a CO2 incubator under conditions of 37° C. and 5% CO2 for 1 week, collected, and then seeded in a 96-well plate to place one CD34-positive cell in each well by using a FACS Aria III cell sorter, and cultured with a MethoCult H4435 ([…] Technologies Inc.) for 2 weeks. After culture, each well was photographed with an optical microscope (manufactured by KEYENCE CORPORATION), and the colony count was determined by visual observation and the form of each colony was determined by visual observation. Colony Formation Unit-Granulocytes, Erythroids, Macrophages, Megakaryocytes (CFU-GEMM), which are derived from myeloid progenitor cells, the erythroid burst colony-forming cells Burst Forming Unit-Erythroids (BFU-E), the granulocyte/macrophage colony-forming cells Colony Formation Unit-Granulocytes, Macrophages (CFU-GM) were determined on the basis of the forms of colonies, and the numbers were counted.

[3] = UM171 (35 nM) and artemether 0.001 μM
[4] = UM171 (35 nM) and artemether 0.003 μM
[5] = UM171 (35 nM) and artemether 0.01 μM
[6] = UM171 (35 nM) and artemether 0.03 μM
[7] = UM171 (35 nM) and artemether 0.1 μM
[8] = UM171 (35 nM) and artemether 0.3 μM
[9] = UM171 (35 nM) and artemether 1 μM
[10] = compound 0.001 μM, 180 cells before culture, no UM171
[11] = compound 0.003 μM, 180 cells before culture, no UM171
[12] = compound 0.01 μM, 180 cells before culture, no UM171
[13] = compound 0.03 μM, 180 cells before culture, no UM171
[14] = compound 0.1 μM, 180 cells before culture, no UM171
[15] = compound 0.3 μM, 180 cells before culture, no UM171
[16] = compound 1 μM, 180 cells before culture, no UM171
[17] = compound 3 μM, 180 cells before culture, no UM171
[18] = compound 10 μM, 180 cells before culture, no UM171

## CO[C@H]1O[C@@H]2O[C@@]3(C)CC[C@H]4[C@H](C)CC[C@@H]([C@H]1C)[C@@]24OO3 [Example 1-30, artemether, reference compound]
[1]; [3]
  CD34-positive cell count: 36 cell
  Viable cell count: 301 cell
[1]; [4]
  CD34-positive cell count: 102 cell
  Viable cell count: 765 cell
[1]; [5]
  CD34-positive cell count: 43 cell
  Viable cell count: 323 cell
[1]; [6]
  CD34-positive cell count: 56 cell
  Viable cell count: 216 cell
[1]; [7]
  CD34-positive cell count: 93 cell
  Viable cell count: 376 cell
[1]; [8]
  CD34-positive cell count: 9 cell
  Viable cell count: 240 cell
[1]; [9]
  CD34-positive cell count: 0 cell
  Viable cell count: 31 cell
[1]; [10]
  CD34-positive cell count: 59 cell
  Viable cell count: 484 cell
[1]; [11]
  CD34-positive cell count: 88 cell
  Viable cell count: 921 cell
[1]; [12]
  CD34-positive cell count: 57 cell
  Viable cell count: 498 cell
[1]; [13]
  CD34-positive cell count: 23 cell
  Viable cell count: 298 cell
[1]; [14]
  CD34-positive cell count: 45 cell
  Viable cell count: 555 cell
[1]; [15]
  CD34-positive cell count: 61 cell
  Viable cell count: 550 cell
[1]; [16]
  CD34-positive cell count: 35 cell
  Viable cell count: 479 cell
[1]; [17]
  CD34-positive cell count: 26 cell
  Viable cell count: 380 cell
[1]; [18]
  CD34-positive cell count: 27 cell
  Viable cell count: 250 cell
[2]; [3]
  Colony count (colony) after culture (CFU-GEMM): 40.1 colony
[2]; [4]
  Colony count (colony) after culture (CFU-GEMM): 204.0 colony
[2]; [5]
  Colony count (colony) after culture (CFU-GEMM): 53.8 colony
[2]; [6]
  Colony count (colony) after culture (CFU-GEMM): 46.8 colony
[2]; [7]
  Colony count (colony) after culture (CFU-GEMM): 94.0 colony
[2]; [8]
  Colony count (colony) after culture (CFU-GEMM): 40.0 colony
[2]; [9]
  Colony count (colony) after culture (CFU-GEMM): 0.0 colony
[2]; compound 0.001 μM, 1 week culture then 2 weeks MethoCult H4435, no UM171
  Colony count (colony) after culture (CFU-GEMM): 40.3 colony
[2]; compound 0.003 μM, 1 week culture then 2 weeks MethoCult H4435, no UM171
  Colony count (colony) after culture (CFU-GEMM): 61.4 colony
[2]; compound 0.01 μM, 1 week culture then 2 weeks MethoCult H4435, no UM171
  Colony count (colony) after culture (CFU-GEMM): 33.2 colony
[2]; compound 0.03 μM, 1 week culture then 2 weeks MethoCult H4435, no UM171
  Colony count (colony) after culture (CFU-GEMM): 34.8 colony
[2]; compound 0.1 μM, 1 week culture then 2 weeks MethoCult H4435, no UM171
  Colony count (colony) after culture (CFU-GEMM): 37.0 colony
[2]; compound 0.3 μM, 1 week culture then 2 weeks MethoCult H4435, no UM171
  Colony count (colony) after culture (CFU-GEMM): 36.7 colony
[2]; compound 1 μM, 1 week culture then 2 weeks MethoCult H4435, no UM171
  Colony count (colony) after culture (CFU-GEMM): 63.9 colony
[2]; compound 3 μM, 1 week culture then 2 weeks MethoCult H4435, no UM171
  Colony count (colony) after culture (CFU-GEMM): 31.7 colony
[2]; compound 10 μM, 1 week culture then 2 weeks MethoCult H4435, no UM171
  Colony count (colony) after culture (CFU-GEMM): 0.0 colony
